Take `O=S(=O)(Nc1ccc(C(F)(F)F)cc1)C(F)(F)F`: the log partition coefficient (logP) – broadly, a log measure of how a compound divides between an organic and an aqueous phase – is 4.47.

On to `CCOCCn1ccnc1[N+](=O)[O-]`, for which the log partition coefficient (logP) is 0.53. Compound `CCOC(=O)N(C)SN(C)C(=O)Oc1cccc2c1OC(C)(C)C2` came in with a logP of 3.5. The compound `CCNP(=O)(OC)Oc1cc(Cl)c(Cl)cc1Cl` (centres undefined) returned a logP of 3.18. The figure for `NC(=O)CCCCCn1nnc2ccccc21` is 0.79; for `CCN(CC)CCCNC(=O)c1ccccc1` it is 1.56.

As for `O=C(O)COc1cccc(OC(F)(F)F)c1`, the logP stood at 2.48. For `COc1cc(OC)nc(-n2[nH]c(=O)cc2C)n1`, the lipophilicity (logP) was 1.16.

Take `C=CCN1C(=O)SC(=Cc2ccc([N+](=O)[O-])o2)C1=O`: the logP stood at 2.22.

Compound `O=C(O)C1c2ccccc2Cc2ccccc21` yielded a logP of 2.78. Regarding `Cc1ccc(NC(=O)CN2CCCCC2)cc1`, the logP was 2.96.

`O=S1(=O)NC(c2cccs2)=Nc2ccccc21` yielded a lipophilicity (logP) of 1.68. As for `Cc1cc2c(cc1Cc1cnc(N)nc1N)OCO2`, the figure is 1.89; as for `O=C(O)c1ccccc1NCCO`, 1.35. As for `CC1=Nc2c(Br)cc(Cl)cc2S(=O)(=O)N1`, the logP is 1.65. On to `CN(C)C1=NC(=O)C(=Cc2ccc([N+](=O)[O-])o2)S1`, for which the logP was 1.14. The compound `CN(C)c1ccc(N(C)C)nn1` showed a logP of 0.99. `CN(C)c1ccc2c(c1)C(=O)OC2(C)C` came in with a lipophilicity (logP) of 2.42. Compound `O=S1(=O)NC(c2ccco2)=Nc2ccccc21` displayed a logP of 1.06. With `O=S(=O)(Nc1ccc(Cl)cc1)C(F)(F)F`, the logP was found to be 3.96. As for `O=C1CC2OCCC3CN4CCC56c7ccccc7N1C5C2C3CC46` (centres undefined), the figure is 1.62; as for `CC(=O)Oc1ccc(N=C2C=CC(=O)C=C2)cc1`, 1.43; as for `O=NN(CCF)C(=O)NC1CCC(NC(=O)N(CCF)N=O)CC1` (centres undefined), 1.34. `CCCCCCCC(=O)NN` had a lipophilicity (logP) of 1.

Take `CNP(=O)(OC)Oc1cc(Cl)c(Cl)cc1Cl` (centres undefined): the logP was determined as 3.06. In turn, `CCOP(=S)(OCC)Oc1ccc(SC)c(Cl)c1` showed a logP of 5.06. Take `O=NN(CCCl)C(=O)NC1C=CCCC1` (centres undefined): the logP was found to be 2.45. For `CCCCCCCCCCCCCCCCCC[n+]1ccccc1.[I-]`, the lipophilicity (logP) was found to be 3.68. As for `CCSc1c(OC)cc(Cc2cnc(N)nc2N)cc1OC`, the log partition coefficient (logP) was 1.79.

In turn, `CN(C)C(=O)Oc1ccccc1Br` had a logP of 2.17. Take `CNc1ccc(C(=O)OCCN(C)C)cc1`: the logP stood at 1.95. `NS(=O)(=O)c1nc2ccc(O)cc2s1` had a logP of 1.13. In turn, `Cc1ncc([N+](=O)[O-])n1CC(O)CCl` (centres undefined) had a logP of 0.6.

`CCOC(=O)CCN1C(=O)C=CC1=O`: the logP amounted to 0.41. The compound `CC(=O)c1ccc2c(c1)C(c1ccccc1F)=NCC(=O)N2` came in with a logP of 1.75. Take `O=S(=O)(Nc1cccc(Br)c1)C(F)(F)F`: the logP was determined as 3.82. Consider `NC(=O)/C=C/c1ccc2c(c1)OCO2`, for which the logP was found to be 1.4. The figure for `O=S(=O)(Nc1cccc(C(F)(F)F)c1)C(F)(F)F` is 4.5. `CNC(=O)ON=C(C)C(C)(C)[N+](=O)[O-]` had a logP of 0.66.

With `CC(=O)c1ccccc1NCCO`, the log partition coefficient (logP) was 1.59. As to `CN(C)CCN(Cc1ccc(C(C)(C)C)cc1)c1ccccc1`, the logP amounted to 5.34.

As for `CCOP(=O)(OCC)Oc1ccc(SC)cc1C`, the logP was found to be 3.21. The figure for `COc1ccc(CN(C)N=Nc2ccc(C(=O)O)cc2)cc1` is 4.43. Compound `CCOC(=O)C(C#N)=NNc1ccc(Cl)c(C(F)(F)F)c1` yielded a logP of 4.86. For `CCCCSc1ccccc1OC(=O)NC`, the log partition coefficient (logP) is 2.98. In the case of `CN1C(=Nc2ncc([N+](=O)[O-])s2)NCC1(C)C`, the log partition coefficient (logP) came out at 2.35. For the compound `CS(=O)(=O)Nc1cccc(NS(C)(=O)=O)c1`, the log partition coefficient (logP) stood at 0.07.

`CCCCCCCCCCCCCCCC[n+]1ccc(C)c(C)c1.[I-]` showed a logP of 3.16. In turn, `COCN1C(=O)C(O)N=C(c2ccccc2)c2cc(N)ccc21` (centres undefined) yielded a logP of 0.75.

For `CC(C)=CC1C(C(=O)OCc2ccc(C#N)cc2)C1(C)C` (centres undefined), the logP worked out at 4.91.

`CSC(C)=NOC(=O)N(C)SN(C)C(=O)C1CC1` showed a log partition coefficient (logP) of 1.7. Consider `CSc1ccccc1/N=N/N(C)C`, for which the logP was found to be 3.13. On to `O=C(O)CCCCCCCN1C(=O)C=CC1=O`, for which the logP is 1.99.

The compound `COc1cc(S(=O)(=O)CCC(C)C)cc(OC)c1OC` came in with a log partition coefficient (logP) of 2.12. The figure for `CCOP(=O)(OCC)Oc1ccc(SC)cc1` is 2.79; for `CN1C(=O)SC(=CC=Cc2ccc([N+](=O)[O-])o2)C1=O` it is 1.4. Regarding `CNC(=O)ON=Cc1ccc(Cl)c(Cl)c1`, the log partition coefficient (logP) came to 2.89. `CN(C)C(=O)OCc1ccccc1`: the logP stood at 2.16. `OCC1OC(Oc2cc(OC3OC(CO)C(O)C(O)C3O)c(I)cc2I)C(O)C(O)C1O` (centres undefined) displayed a lipophilicity (logP) of -0.25.

Turning to `O=C(O)COc1cc(F)cc(Cl)c1`, the logP amounted to 2.2.

As to `COc1cccc(C=C(C(C)=O)C(C)=O)c1`, the logP amounted to 1.79.

`Nc1ncco1` returned a log partition coefficient (logP) of -0.18. Take `COc1cc(Cc2cnc(N)nc2N)cc(OC)c1OCc1ccccc1`: the logP stood at 2.46.

`O=[N+]([O-])c1cnc(N=C2NCCN2)s1` yielded a logP of 1.38. On to `COP(=O)(OC)Oc1ccccc1`, for which the log partition coefficient (logP) was found to be 1.22.

Take `Nc1nc(N)nc(-c2cc(F)ccc2Br)n1`: the lipophilicity (logP) turned out to be 1.45. The compound `C#CC(C=CCl)(CC)OC(N)=O` (centres undefined) registered a logP of 1.71. `COP(=O)(OC)Oc1ccc([N+](=O)[O-])c(Cl)c1`: the logP worked out at 1.83.

`O=C(c1ccncc1)c1ccc(O)cc1` had a lipophilicity (logP) of 1.37. As for `COP(=O)(NC(C)(C)C)SC` (centres undefined), the logP was 0.96.

Compound `O=C(O)COc1ccc(C2CCCC2)cc1` came in with a lipophilicity (logP) of 3.41. Consider `CCC(=O)c1ccc(OC(=O)NC)cc1`, for which the logP turned out to be 1.55. With `CCCOn1c(=O)[nH]c(C)c(Br)c1=O`, the logP worked out at 0.76. `CSC(C)=NOC(=O)N(C)SN(C)C(=O)c1ccc(Cl)cc1Cl` gave a logP of 3.2. As to `CCc1n[nH]c(=O)[nH]c1=O`, the logP was 0.22. `Nc1ccc(Cc2cnc(N)nc2N)cc1` showed a logP of 0.22. The figure for `O=[N+]([O-])c1cnc(N=C2NCC(O)CN2)s1` (centres undefined) is 0.74; for `CC1N=C(c2ccccc2Cl)c2cc(Cl)ccc2N(C)C1=O` (centres undefined) it is 3.4; for `COC(=O)C(C#N)=NNc1ccc2c(c1)OC(F)(F)C(F)(F)O2` it is 4.86. `CN(/N=N/c1nc[nH]c1C(N)=O)C(C)(C)C` yielded a lipophilicity (logP) of 0.94. Regarding `CC(=O)Nc1ccc(O)c(C)c1`, the lipophilicity (logP) turned out to be 0.79.

In turn, `CCCCOn1c(=O)[nH]c(C)c(Br)c1=O` displayed a logP of 1.24.

The compound `CCCSC1OC(CO)C(O)C(O)C1O` (centres undefined) showed a logP of -1.18. The compound `COC(=O)C1(n2ccnc2[N+](=O)[O-])CC(OC(C)=O)C(NC(C)=O)C(C(OC(C)=O)C(COC(C)=O)OC(C)=O)O1` (centres undefined) showed a logP of 0.41. The figure for `Cc1csc(C=Cc2ccc([N+](=O)[O-])o2)n1` is 1.53; for `N#Cc1ccc([N+](=O)[O-])n1CCO` it is 0.6. For `CCC(=O)N(C)c1ccc(S(=O)(=O)N(C)C)cc1`, the lipophilicity (logP) stood at 0.71. On to `COc1c(N(C)C)cc(Cc2cnc(N)nc2N)cc1N(C)C`, for which the logP was 2.05. Take `Clc1cccc(C2NCCS2)c1` (centres undefined): the lipophilicity (logP) was 2.04.

`Nc1nc(N)nc(-c2cc(Cl)ccc2Br)n1` returned a logP of 1.85. As for `CCC(=O)Cn1ccnc1C=Cc1occc1[N+](=O)[O-]`, the figure is 1.27; as for `Cc1ccccc1OC1OC(CO)C(O)C(O)C1O` (centres undefined), -0.16; as for `CNC(=O)Oc1cccc([N+](=O)[O-])c1`, 1.39. Regarding `CNC(=O)NCCSCc1[nH]cnc1C`, the log partition coefficient (logP) was -0.06.

The compound `CSC1=NCCN1c1ncc([N+](=O)[O-])s1` returned a logP of 1.78. Turning to `CC(=O)C(C#N)=NNc1ccc(SC(F)(F)F)cc1`, the lipophilicity (logP) was determined as 5.04. As for `O=NN(CCCl)C(=O)NC1CCS(=O)(=O)CC1`, the figure is 0.19; as for `O=S(=O)(Nc1cccc(F)c1)C(F)(F)F`, 3.42; as for `COC(=O)c1c(OC)cc(Cc2cnc(N)nc2N)cc1OC`, 0.95. In turn, `COc1cc(Cc2cnc(N)nc2N)cc(OC)c1C(N)=O` registered a logP of -0.85.

Regarding `CSc1nnc(C(C)C)c(=O)n1N`, the log partition coefficient (logP) was found to be 1.01. Regarding `CC1(C)N=C(N)N=C(N)N1c1ccc(C(F)(F)F)cc1`, the log partition coefficient (logP) was 1.22. Compound `COC(=O)C(C#N)=NNc1cc(C#N)ccc1C#N` gave a lipophilicity (logP) of 2.81. `CN(C)S(=O)(=O)c1ccccc1` showed a logP of 1.35. The compound `CC1C(C)N(N=O)C(C)C(C)N1N=O` (centres undefined) registered a logP of 0.91. The compound `COCCOc1c(OC)cc(Cc2cnc(N)nc2N)cc1OC` had a logP of 0.56. The figure for `CCC(C)C(=O)NN` (centres undefined) is -0.33; for `O=C(O)COc1ccccc1-c1ccccc1` it is 2.83. The figure for `CCC(=O)N(C)SN(C)C(=O)Oc1cccc2c1OC(C)(C)C2` is 3.2; for `CCOc1cc(Cc2cnc(N)nc2N)cc(OCC)c1C(=O)CS(C)(=O)=O` it is 0.79; for `Cc1cc(C)c(NC2=NCCN2)c(C)c1` it is 2.32. `CC(=O)NNC(=O)c1ccccc1N=NN(C)C`: the logP came to 1.18. Compound `NNC(=O)NC1CCCCC1` gave a logP of 0.15.

`Cc1cccc2c1ncc[n+]2[O-]` had a logP of 1.2.

Take `Nc1cnc2ccccc2n1`: the logP is 1.5. As to `COCCn1ccnc1[N+](=O)[O-]`, the logP came to 0.12. Consider `CCCCCCOn1c(=O)[nH]c(C)c(Br)c1=O`, for which the logP came out at 2.48. `COc1c(OCc2ccccc2)cc(Cc2cnc(N)nc2N)cc1OCc1ccccc1`: the logP is 3.89. Compound `CCCCOC(=O)N(CCCC)SN(C)C(=O)ON=C(C)SC` registered a lipophilicity (logP) of 4.2. On to `COc1cc(CC(=O)O)ccc1OCc1ccccc1`, for which the logP stood at 2.59. Compound `CCOn1c(=O)[nH]c(C)c(Br)c1=O` displayed a log partition coefficient (logP) of 0.11. Compound `O=C(O)COc1cccc(S(=O)(=O)C(F)(F)F)c1` displayed a logP of 2.19.

On to `S=C=Nc1ccc(N=Nc2ccccc2)cc1`, for which the lipophilicity (logP) was 5.55. Regarding `CCOC(=O)c1cnc2cccc(C)n2c1=O`, the log partition coefficient (logP) turned out to be 0.96.
